Measured values published in patent publication US20240261412A1, “NUTRACEUTICAL COMPOSITION FOR DELIVERY OF HYDROPHILIC AND HYDROPHOBIC BIOACTIVE SUBSTANCES” (AKAY NATURAL INGREDIENTS PRIVATE LIMITED, priority 2021, published 2024).
Values joined by “and” are separate entries in the source; they are usually repeats but may differ in a detail not shown here. Equal values may be shown once. Blank lines part the entries; values can stand above or below the compound they belong to.

Columns and labels:
[1] = In vitro release kinetics of trans-resveratrol formulation (USP dissolution apparatus); assay type: physicochemical; settings: pH 6.5 and 2, FIG. 2
Experimental: Briefly, a 50 mg of RF-20 was dispersed in a 10 mL solution of appropriate pH and kept under constant stirring at 37±0.5° C. […] The amount of resveratrol content in the solution was determined by HPLC, with the help of a calibration curve. The experiment was performed in triplicate and the mean cumulative percentage of released resveratrol was calculated and plotted against time to follow the release kinetics.

[2] = Pharmacokinetics study of resveratrol, randomized double-blinded crossover, capsules and sachets; assay type: in vivo, human; settings: for Tmax: human, plasma, read-out: Free Resveratrol Tmax
Experimental: The bioavailability study in human subjects was carried out in two phases. In the first phase, identical hard shell gelatin capsules of either the trans-resveratrol powder formulation obtained in example 1 (RF-20) or unformulated resveratrol (U-tRES) containing 80 mg of trans-resveratrol were provided. […] The unformulated capsule contained 80±5 mg of trans-resveratrol with 98.2% purity isolated from Japanese Knotweed (U-tRES) by an ethanol/water extraction process and about 300 mg of microcrystalline cellulose as an excipient. In the second phase, the same dose of either the trans-resveratrol powder formulation or the unformulated resveratrol was administered in identical stick packs, each weighing about 3 g. Maltodextrin was used as an additive to make up the sachet packs to 3 g and the participants were asked to drink one sachet with about 240 mL of water. The double-blinded, placebo-controlled, randomized pharmacokinetic study was conducted using both capsules and sachets, to investigate the influence of delivery form on the relative bioavailability of trans-resveratrol from RF-20 and U-tRES. Each dose of either the resveratrol powder formulation or the unformulated resveratrol delivered 80±5 mg of trans-resveratrol. […] The blood samples were analysed by tandem mass spectrometry using QTRAP technology to detect, confirm and quantify ‘free’ resveratrol content in biomatrices.

[3] = Pharmacokinetics of fisetin powder formulation in healthy human subjects; assay type: in vivo; settings: human plasma
Experimental: The bioavailability of the fisetin formulation was evaluated in healthy human subjects. It has been evaluated in a single dose, randomized, comparative, double-blinded crossover design was adopted to evaluate the difference in the bioavailability and pharmacokinetic parameters (Cmax, AUC, Tmax, and t½) of free (unconjugated) fisetin and geraldol following the oral administration of a fisetin formulation obtained in example 6 (FF-20) and unformulated fisetin (UF). The participants were provided with a capsule contained 500±25 mg of UF or FF-20. Around 50 mg of microcrystalline cellulose was present in each capsule as a flow-improving excipient. Following administration, blood samples (2 mL) were collected 5 min (t0) prior to oral dosing and subsequently at 0.5, 1, 2, 3, 5, 8, and 12 h after oral ingestion of UF or FF-20, using an indwelling venous cannula. Participants were provided with a standardized breakfast, lunch, snack, and dinner respectively at 1, 4, 8, and 12 h after dosing. Plasma was separated by centrifugation at 11,950×g for 10 min at 4° C. and stored for a maximum of two days at −20° C. for analysis. Fisetin and geraldol in plasma samples were extracted and subjected to UPLC-ESI-MS/MS analyses.

[4] = In vitro release kinetics of calcium ascorbate formulation; assay type: physicochemical; settings: stomach and intestinal pH conditions, FIG. 5
Experimental: The in vitro release of ascorbic acid from the calcium ascorbate powder formulation was determined in water containing 1.6 mmol of the disodium salt of EDTA (ethylenediamine tetra acetic acid) at pH 2.0 and 6.8 using 0.1 M HCl and phosphate buffer respectively. 500 mg of calcium ascorbate powder formulation was mixed with 500 mL of EDTA solution to obtain the calcium ascorbate solution. The pH of the calcium ascorbate solution was adjusted and agitated at 100 rpm. About 1 mL of the solution was carefully withdrawn at regular intervals of 0, 1, 2, 4, 6, and 8 h and made up to 100 mL with water. The ascorbate content was then analysed by HPLC method. Analysis was performed in triplicate and the mean cumulative percentage of released ascorbate was calculated and plotted against time to study the in vitro release kinetics of CAAS from the fenugreek galactomannan matrix.

[5] = Pharmacokinetics of calcium ascorbate formulation in healthy volunteers; assay type: in vivo, human; settings: single oral dose of 1000 mg
Text: The relative bioavailability of the calcium ascorbate formulation obtained in Example 5 (FC+) with respect to the unformulated CAAS (UF-CAAS) powder with >98% purity was investigated in healthy volunteers.
The study was designed as a randomized, double-blinded, single dose study on healthy volunteers. Healthy volunteers (males and females) (n ¼14) aged 18 to 65 years having BMI between 18-25 kgm^−2 were enrolled for the study. Those who were having a history of gut disorders such as irritable bowel syndrome, ulcerative colitis, gastro-oesophageal reflux.
Selected participants were randomized into one of the three treatment arms consisting of three single dose treatments, with either formulated (tablets and capsules) or unformulated (UFCAAS) tablets.
Tablets and hard-shell two-piece hypromellose capsules of both FC+ and UF-CAAS were prepared in such a way that each tablet weighs about 1000±25 mg and each capsule contains 500±25 mg with similar content of CAAS. The study participants were orally administered with a single dose of 1000 mg tablet or capsule as per the study protocol, along with 200±10 mL of normal drinking water.
The quantification of calcium ascorbate in plasma was carried out by a validated HPLC method.

[6] = human plasma, capsule, 80 mg trans-resveratrol per dose
[7] = human plasma, sachet, 80 mg trans-resveratrol per dose

solubility in release medium [1]: insoluble
Tmax ([2]; both sexes, oral, 80 mg, human plasma, capsule, 80 mg trans-resveratrol per dose): 1.07 ± 0.26 h
Tmax ([2]; both sexes, oral, 80 mg, human plasma, sachet, 80 mg trans-resveratrol per dose): 1.21 ± 0.42 h
half-life ([2]; both sexes, oral, human plasma, sachet, 80 mg trans-resveratrol per dose, read-out: Free Resveratrol t1/2 (converted)): 1.58 ± 0.65 h
time after which plasma levels were undetectable ([2]; free resveratrol, sachet): 3 h
free resveratrol AUC0-24 h ([2]; human plasma, capsule, 80 mg): 32.05 ± 9.97 ng·h/mL
Free Resveratrol AUC0-24 [2, 6]: 32.05 ng·h/mL
Free Resveratrol Cmax [2, 6]: 16.34 ng/mL
Free Resveratrol t1/2 [2, 6]: 1.58 h
Free Resveratrol Cmax ([2]; human plasma, capsule, 80 mg trans-resveratrol per dose, listed as UtRES): 16.34 ± 5.67 ng/mL
Free Resveratrol AUC0-24 [2, 7]: 31.93 ng·h/mL
Free Resveratrol Cmax [2, 7]: 15.07 ± 5.10 ng/mL and 15.07 ng/mL
Compound: Oc1ccc(/C=C/c2cc(O)cc(O)c2)cc1 [U-tRES, trans-resveratrol]
tolerability (side effects or adverse events) ([2]; n=16, both phases, 80±5 mg trans-resveratrol per dose): without any significant side effects or adverse events

Tmax ([3]; 500 mg, single oral dose): 0.88 h
Cmax ([3]; 500 mg, single oral dose, normalized for the higher fisetin intake in UF): 9.97 ng/mL
AUC(0-t) ([3]; 500 mg, single oral dose, normalized for the higher fisetin intake in UF, read-out: Fisetin AUC0-12): 12.7 ng·h/mL
half-life ([3]; 500 mg, single oral dose, read-out: Fisetin t1/2 (converted)): 1.14 h
time after dosing up to which fisetin levels were quantifiable [3]: 2 h
Compound: O=c1c(O)c(-c2ccc(O)c(O)c2)oc2cc(O)ccc12 [UF, fisetin]

Compound: calcium ascorbate [UF-CAAS]
in vitro release behaviour [4]: sustained release
AUC (plasma ascorbate) [5]: 311.4 ± 63.87^ μM · h/mL
MRT (plasma ascorbate) [5]: 22.67 ± 2.02 h
T1/2 (plasma ascorbate) [5]: 3.6 h
Tmax (plasma ascorbate) [5]: 1 h
Cmax ([5]; read-out: Cmax (plasma ascorbate)): 51.7 ± 21 µM
